Legend:
[1] = tested on: hydrochloric acid secretion stimulated by histamine; test: inhibition of secretion plateau stimulated by histamine in anesthetized perfused-stomach rats; type: in vivo, rat; settings: 150 nmol/kg i.v., histamine 13.5 μmol/kg/h
Procedure: (§1) For the purpose of these tests, use was made of male Wistar rats weighing 300±25 g. The rats were not allowed to take solid food for 18 hours, but were allowed to drink water freely. They were then anesthesized with urethane (1.25 g/kg) by the intramuscular route. The temperature of the rats was maintained at 34° C. by means of lamps, approximately 60 cm away from them. A polyethylene catheter was introduced into the esophagus up to the level of the cardia and a second catheter for collecting the stomach secretion at the duodenum. After washing the stomach, the latter was continuously perfused with a 0.9% sodium chloride solution, at a flow rate of 1 ml/min, using a peristaltic pump connected to the catheter of the esophagus.
(§2) After a period of stabilizing the system lasting approximately 90 minutes after the operation, the compounds which it was wished to study were injected intravenously into the vein of the penis and the gastric secretion was collected by fractions taken every 20 minutes, the interval between these injections being min 90 minutes. The acidity of the sample fractions was dosed by means of a 0.01N sodium solution at the phenolphthalein colour change.
In this case, use is made of the same operating procedure as in the second group of experiments, by stimulating the secretion by histamine. In this case, a higher histamine dose (13.5 μmol/kg/h) is injected.

[2] = tested on: hydrochloric acid secretion; test: hydrochloric acid secretion in anesthetized rats with perfused stomach (Ghosh and Schild, modified by Lai): agonist effect; type: in vivo, rat; settings: intravenous injection, male Wistar rats
Procedure: as §1, §2

Structure (SMILES)	duration of inhibition of the histamine response [1]	inhibition of the histamine response (intensity) [1]	maximum inhibition percentage (mean ± ESM) ([1]; group of 4 rats) [%]	dose from which activity on hydrochloric acid secretion is maximum [2] [nmol/kg]
CN/C(=N\CCSCc1nc[nH]c1C)NC#N [cimetidine]	approximately 3 h	approximately 55%	54.4±2.7	
CSCC[C@H](NC(=O)[C@H](Cc1c[nH]c2ccccc12)NC(=O)CCNC(=O)OC(C)(C)C)C(=O)N[C@@H](CC(=O)O)C(=O)N[C@@H](Cc1ccccc1)C(N)=O [pentagastrin, Boc-βAla-Trp-Met-Asp-Phe-NH2]				≥ 20

Reference: patent publication US4530837A, “Peptide derivatives, their preparation process and their pharmaceutical use” (Commissariat a l'Energie Atomique, priority 1982, dated 1985)
